Assay results taken from PMC12635268, “Novel antimicrobial peptides and peptide-microbiome crosstalk in Appalachian salamander skin” (NPJ Biofilms and Microbiomes, 2025).
≈ marks a conversion by molar mass, not a printed value. Peptide text beside a SMILES is read from it.

Experiments:
[1] = parameters: method as in Biomatik (vendor); conditions: 1.0 mg peptide in 1.0 ml solvent; peptides synthesized by Biomatik; ref Biomatik (vendor); cited from earlier work
A. baumannii 5075 = conditions: CAMHB, 1 × 10⁵ CFU/mL, 0.25 to 128 μg/mL, 37 °C 20 h, duplicate, read visually (CLSI)
P. aeruginosa PA01 (Si) = assay: microbe, parasite or virus in culture; assay type: cell-based; conditions: Si
Excerpt: Supplement 41522_2025_837_MOESM13_ESM.xlsx, sheet "Table_S13_ESKAPEE-MIC" | column: Bacterial MIC (µg/mL)

K. pneumoniae 4640 = conditions: K. pneumoniae 4640; CAMHB, 1 × 10⁵ CFU/mL, 0.25 to 128 μg/mL, 37 °C 20 h, duplicate, read visually (CLSI)
P. aeruginosa PA01 = assay: microbe, parasite or virus in culture; assay type: cell-based; conditions: 20 h
Description: (§1) Antimicrobial susceptibility testing of the 20 synthesized peptides against 17 bacterial strains of clinical relevance in the ESKAPEE panel was conducted using minimum inhibitory concentration (MIC) assays following the broth microdilution method outlined by Parker et al.[91]. The ESKAPEE panel is comprised of fourteen American Type Culture Collection (ATCC) strains and three Multidrug Resistant Organism Repository and Surveillance Network (MRSN) bacterial strains. These strains represent at least one drug-susceptible strain and one drug-resistant strain for each bacterium to assess drug efficacy across various resistance mechanisms. This panel is comprised of the following bacterial species and strains: E. faecium (ATCC 19434, ATCC 49224), S. aureus (ATCC 25923, ATCC 43300), K. pneumoniae (ATCC 700603, ATCC 13883, MRSN 1320), A. baumannii (ATCC 17978, ATCC 19606, MRSN 959), P. aeruginosa (ATCC 15692, ATCC 27853, MRSN 5519), E. cloacae (ATCC 13047, ATCC 35549), and E. coli (ATCC 35218, ATCC 43888). Bacteria were grown in cation-adjusted Mueller-Hinton broth (CAMHB) to achieve a final inoculum of 1 × 10⁵ CFU/mL. CAMHB is selected for its batch-to-batch reproducibility, low levels of antimicrobial inhibitors, and ability to support the growth of most bacterial pathogens.
(§2) Briefly, lyophilized peptides were dissolved in 0.2% TFA + 0.4% BSA in water to 2.56 mg/mL, ultrasonicated for 20 min, diluted 10-fold into CAMHB, and then serially diluted 2-fold in 0.02% TFA + 0.04% BSA in CAMHB and assayed at a concentration of 0.25 to 128 μg/mL. Assays were set up using the Tecan Freedom EVO liquid handling robot and software (Tecan, Switzerland) with 50 μL of bacterial inoculum and 50 μL of peptide transferred into round-bottom 96-well microtiter plates. Each plate assay was performed in duplicate and incubated at 37 °C for 20 h without agitation. Bacterial growth was assessed using the BIOMIC V3 Image Analysis system (Giles Scientific, USA) and the MIC values were determined visually according to the Clinical and Laboratory Standards Institute (CLSI) guidelines.

S. aureus ATCC 25923 = assay: microbe, parasite or virus in culture
Description: as §1, §2

P. aeruginosa ATCC 27853 = assay: microbe, parasite or virus in culture
Description: as §1, §2

P. aeruginosa MRSN 5519 = assay: microbe, parasite or virus in culture; conditions: P. aeruginosa 5519; CAMHB, 1 × 10⁵ CFU/mL, 0.25 to 128 μg/mL, 37 °C 20 h, duplicate, read visually (CLSI)
Description: as §1, §2

[2] = test system: K. pneumoniae ATCC 700603; assay: microbe, parasite or virus in culture; conditions: K. pneumoniae 700603; CAMHB, 1 × 10⁵ CFU/mL, 0.25 to 128 μg/mL, 37 °C 20 h, duplicate, read visually (CLSI)
Description: as §1, §2

A. baumannii ATCC 19606 = assay: microbe, parasite or virus in culture; conditions: A. baumannii 19606; CAMHB, 1 × 10⁵ CFU/mL, 0.25 to 128 μg/mL, 37 °C 20 h, duplicate, read visually (CLSI)
Description: as §1, §2

E. faecium ATCC 49224 = assay: microbe, parasite or virus in culture; conditions: E. faecium 49224; CAMHB, 1 × 10⁵ CFU/mL, 0.25 to 128 μg/mL, 37 °C 20 h, duplicate, read visually (CLSI)
Description: as §1, §2

E. cloacae ATCC 35549 = assay: microbe, parasite or virus in culture; conditions: E. cloacae 35549; CAMHB, 1 × 10⁵ CFU/mL, 0.25 to 128 μg/mL, 37 °C 20 h, duplicate, read visually (CLSI)
Description: as §1, §2

E. cloacae ATCC 13047 = assay: microbe, parasite or virus in culture; conditions: E. cloacae 13047; CAMHB, 1 × 10⁵ CFU/mL, 0.25 to 128 μg/mL, 37 °C 20 h, duplicate, read visually (CLSI)
Description: as §1, §2

A. baumannii ATCC 17978 = assay: microbe, parasite or virus in culture; conditions: A. baumannii 17978; CAMHB, 1 × 10⁵ CFU/mL, 0.25 to 128 μg/mL, 37 °C 20 h, duplicate, read visually (CLSI)
Description: as §1, §2

K. pneumoniae ATCC 13883 = assay: microbe, parasite or virus in culture; conditions: K. pneumoniae 13883; CAMHB, 1 × 10⁵ CFU/mL, 0.25 to 128 μg/mL, 37 °C 20 h, duplicate, read visually (CLSI)
Description: as §1, §2

E. coli ATCC 35218 = assay: microbe, parasite or virus in culture; conditions: ATCC 35218, 20 h
Description: as §1, §2

E. faecium ATCC 19434 = assay: microbe, parasite or virus in culture; conditions: E. faecium 19434; CAMHB, 1 × 10⁵ CFU/mL, 0.25 to 128 μg/mL, 37 °C 20 h, duplicate, read visually (CLSI)
Description: as §1, §2

S. aureus ATCC 43300 = assay: microbe, parasite or virus in culture; conditions: S. aureus 43300; CAMHB, 1 × 10⁵ CFU/mL, 0.25 to 128 μg/mL, 37 °C 20 h, duplicate, read visually (CLSI)
Description: as §1, §2

E. coli ATCC 43888 = assay: microbe, parasite or virus in culture; conditions: ATCC 43888, 20 h
Description: as §1, §2

CC[C@H](C)[C@H](NC(=O)[C@H](CO)NC(=O)[C@H](CO)NC(=O)[C@H](Cc1ccccc1)NC(=O)[C@H](CS)NC(=O)CNC(=O)CNC(=O)[C@H](CCCNC(=N)N)NC(=O)[C@H](CCCNC(=N)N)NC(=O)[C@H](Cc1ccc(O)cc1)NC(=O)[C@H](CS)NC(=O)[C@H](CC(N)=O)NC(=O)[C@H](Cc1c[nH]c2ccccc12)NC(=O)[C@@H]1CCCN1C(=O)[C@H](CCCNC(=N)N)NC(=O)[C@H](C)NC(=O)[C@H](CCCNC(=N)N)NC(=O)[C@H](CCCNC(=N)N)NC(=O)[C@@H](NC(=O)[C@H](CCCNC(=N)N)NC(=O)[C@@H](NC(=O)[C@H](CCCNC(=N)N)NC(=O)[C@H](CCCCN)NC(=O)[C@@H](N)CC(C)C)[C@@H](C)O)C(C)C)C(=O)NCC(=O)N[C@@H](CO)C(=O)N[C@@H](CC(C)C)C(=O)N[C@H](C(=O)N1CCC[C@H]1C(=O)N[C@H](C(=O)O)C(C)C)[C@@H](C)O [Pcin-CATH3] (H-LKRTRVRRARPWNCYRRGGCFSSIGSLTPV-OH; N-terminus and C-terminus assumed)
Suggest solvent (solubility) [1]: 1.0mg peptide soluble in 1.0ml H2O | MIC (A. baumannii 5075): 16 µg/mL (≈ 4.58 µM) | Bacterial MIC (P. aeruginosa PA01 (Si)): 32 µg/mL | MIC (K. pneumoniae 4640): >128 µg/mL | MIC (P. aeruginosa PA01): 32 µg/mL (≈ 9.16 µM) | MIC (S. aureus ATCC 25923; S. aureus 25923, CAMHB, 1 × 10⁵ CFU/mL, 0.25 to 128 μg/mL, 37 °C 20 h, duplicate, read visually (CLSI)): >128 µg/mL | MIC (P. aeruginosa ATCC 27853; P. aeruginosa 27853, CAMHB, 1 × 10⁵ CFU/mL, 0.25 to 128 μg/mL, 37 °C 20 h, duplicate, read visually (CLSI)): >128 µg/mL | MIC (P. aeruginosa MRSN 5519): >128 µg/mL | MIC [2]: >128 µg/mL | MIC (A. baumannii ATCC 19606): 64 µg/mL (≈ 18.3 µM) | MIC (E. faecium ATCC 49224): >128 µg/mL | MIC (E. cloacae ATCC 35549): >128 µg/mL | MIC (E. cloacae ATCC 13047): >128 µg/mL | MIC (A. baumannii ATCC 17978): 64 µg/mL (≈ 18.3 µM) | MIC (K. pneumoniae ATCC 13883): >128 µg/mL | Bacterial MIC (E. coli ATCC 35218): 128 µg/mL | MIC (E. coli ATCC 35218): >128 µg/mL | MIC (E. faecium ATCC 19434): >128 µg/mL | MIC (S. aureus ATCC 43300): >128 µg/mL | Bacterial MIC (E. coli ATCC 43888): 64 µg/mL

CC[C@H](C)[C@H](NC(=O)[C@H](CO)NC(=O)[C@H](Cc1ccc(O)cc1)NC(=O)[C@H](CS)NC(=O)CNC(=O)[C@H](C)NC(=O)[C@H](CCCNC(=N)N)NC(=O)[C@H](CCCNC(=N)N)NC(=O)[C@H](Cc1ccc(O)cc1)NC(=O)[C@H](CS)NC(=O)[C@H](CCCCN)NC(=O)[C@H](Cc1c[nH]c2ccccc12)NC(=O)[C@@H]1CCCN1C(=O)[C@H](CCCNC(=N)N)NC(=O)[C@H](C)NC(=O)[C@H](CCCNC(=N)N)NC(=O)[C@H](CCCNC(=N)N)NC(=O)[C@@H](NC(=O)[C@H](CCCNC(=N)N)NC(=O)[C@@H](NC(=O)[C@H](CCCNC(=N)N)NC(=O)[C@H](CCCCN)NC(=O)[C@@H](N)CO)[C@@H](C)O)C(C)C)C(=O)N[C@H](C(=O)NCC(=O)N[C@@H](CCSC)C(=O)N[C@@H](Cc1ccccc1)C(=O)N[C@@H](CCCCN)C(=O)N[C@@H](CCCCN)C(=O)N[C@@H](CO)C(=O)O)[C@@H](C)CC [Pcin-CATH5] (H-SKRTRVRRARPWKCYRRAGCYSIIGMFKKS-OH; N-terminus and C-terminus assumed)
Suggest solvent (solubility) [1]: 1.0mg peptide soluble in 1.0ml H2O | MIC (A. baumannii 5075): 4 µg/mL (≈ 1.09 µM) | Bacterial MIC (P. aeruginosa PA01 (Si)): 8 to 16 µg/mL | MIC (K. pneumoniae 4640): >128 µg/mL | MIC (P. aeruginosa PA01): 16 µg/mL (≈ 4.37 µM) | Bacterial MIC (S. aureus ATCC 25923; ATCC 25923, 20 h): 128 µg/mL | MIC (S. aureus ATCC 25923; ATCC 25923, 20 h): >128 µg/mL | MIC (P. aeruginosa ATCC 27853; ATCC 27853, 20 h): >128 µg/mL | MIC (P. aeruginosa MRSN 5519): >128 µg/mL | MIC [2]: >128 µg/mL | MIC (A. baumannii ATCC 19606): 8 µg/mL (≈ 2.18 µM) | MIC (E. faecium ATCC 49224): 64 µg/mL (≈ 17.5 µM) | MIC (E. cloacae ATCC 35549): >128 µg/mL | MIC (E. cloacae ATCC 13047): >128 µg/mL | MIC (A. baumannii ATCC 17978): 8 µg/mL (≈ 2.18 µM) | MIC (K. pneumoniae ATCC 13883): >128 µg/mL | Bacterial MIC (E. coli ATCC 35218): 16 to 32 µg/mL | MIC (E. coli ATCC 35218): 32 µg/mL (≈ 8.74 µM) | MIC (E. faecium ATCC 19434): 64 µg/mL (≈ 17.5 µM) | MIC (S. aureus ATCC 43300): 64 µg/mL (≈ 17.5 µM) | Bacterial MIC (E. coli ATCC 43888): 16 µg/mL
